Laboratory results: PMC4472782, “Antibacterial Characterization of Novel Synthetic Thiazole Compounds against Methicillin-Resistant Staphylococcus pseudintermedius” (PLoS ONE, 2015)
Values after ≈ are worked out from the molar mass of the structure shown. Where two headings read alike, the source gives them in different places.

Experiments:
[1] = test system: methicillin-resistant Staphylococcus pseudintermedius; test: MIC by broth microdilution against MRSP clinical isolates; type: cell-based; details: six MRSP isolates, triplicate
Experimental: (§1) Fifteen isolates of S. pseudintermedius (nine MSSP and six MRSP), identified at the Indiana Animal Disease Diagnostic Laboratory from specimens collected from dogs admitted to the small animal teaching hospital at Purdue University, were included in the study. The specimens were not collected specifically for this research study but were obtained from patients admitted to the hospital for treatment. Clinical specimens were inoculated onto 5% sheep blood agar and incubated at 35°C for 18–24 hours. Standard methods including examination of colony morphology and hemolysis and biochemical tests such as tube coagulase, Voges-Proskauer (VP) and fermentation tests for maltose, trehalose and lactose, were used in addition to matrix-assisted laser desorption ionization time of flight mass spectrometry to identify isolates. Antimicrobial susceptibility was determined by broth microdilution using the SensiTitre (Thermofisher Scientific).
(§2) Bacteria were prepared in phosphate-buffered saline (PBS) until a McFarland standard of 0.5 was achieved. The solution was subsequently diluted 1:300 in Mueller-Hinton broth (MHB) to reach a starting inoculum of 1 × 10^5 colony-forming units (CFU/mL). Bacteria were then transferred to a 96-well microtiter plate. Thiazole compounds and antibiotics were added (in triplicate) to wells in the first row of the microtiter plate and then serially diluted along the vertical axis. […] The MIC was categorized as the concentration where there was no visible growth of bacteria observed.

[2] = test system: methicillin-sensitive Staphylococcus pseudintermedius; test: MBC determination against MSSP clinical isolates; type: cell-based; details: nine MSSP isolates
Experimental: The MBC was determined by plating 5 μL from wells on the 96-well microtiter plate (where the MIC was determined) where no growth was observed onto Tryptic soy agar (TSA) plates. […] The MBC was categorized as the concentration where ≥99% reduction in bacterial cell count was observed.

MRSP SP3 [3] = test: Checkerboard assay of thiazole compounds with oxacillin; type: cell-based, Staphylococcus pseudintermedius
Experimental: The relationship between the thiazole compounds and oxacillin was assessed via a standard checkerboard assay. Bacteria (MRSP SP3) equivalent to a McFarland standard of 0.5 were prepared in PBS. The bacteria were next diluted in MHB to achieve a starting cell density of 1 × 10^5 CFU/mL. MHB was transferred to all wells of a 96-well microtiter plate. […] Oxacillin was serially diluted along the abscissa of the microtiter plate while the thiazole compound was serially diluted along the ordinate. The plate was incubated for 22–24 hours at 37°C. The MIC of the test compound in combination with oxacillin was determined as the lowest concentration of each compound/antibiotic where no visible growth of bacteria was observed. The fractional inhibitory concentration index (ƩFIC) was calculated for each combination as described previously. A synergistic relationship was classified as an FIC index less than or equal to 0.5. […]

[4] = Microsomal stability analysis in dog liver microsomes; type: in vitro ADME; details: pH 7.4, dog liver microsomes
Experimental: The reaction contained microsomal protein in 100 mM potassium phosphate, 2 mM NADPH, 3 mM MgCl2, pH 7.4. A control was run for each test agent omitting NADPH to detect NADPH-free degradation. At 0, 10, 20, 40, and 60 minutes, an aliquot was removed from each experimental and control reaction and mixed with an equal volume of ice-cold Stop Solution (methanol containing haloperidol, diclofenac, or other internal standard). Stopped reactions were incubated at least 10 minutes at -20°C, and an additional volume of water was subsequently added. The samples were centrifuged to remove precipitated protein, and the supernatants were analyzed by LC/MS/MS to quantitate the remaining parent. Data were converted to % remaining by dividing by the time zero concentration value. Data were then fitted to a first-order decay model to determine half-life. Intrinsic clearance was calculated from the half-life and the protein concentrations, as has been described elsewhere.

[5] = Kinetic (turbidimetric) solubility in PBS; type: physicochemical; details: aqueous buffer, kinetic from dmso stock; phosphate-buffered saline; highest concentration with no precipitate; read-out: Solubility Limit
Experimental: The absorbance of the PBS-containing plate was measured prior to addition of the test agents to determine the background absorbance. After 2 hours, the presence of precipitate was detected by turbidity (absorbance at 540 nm).

MRSP SP3 [6] = test: Post-antibiotic effect against MRSP; type: cell-based, Staphylococcus pseudintermedius; details: 4 × MIC for one hour
Experimental: A tube containing untreated bacterial cells served as a control. Afterward, the compound/antibiotic was washed out by diluting bacteria 1:1000 in MHB. Counts of CFU for all cultures were obtained after washing. Aliquots (100 μL) of bacteria were removed every hour (for 10 hours), serially diluted in PBS, and plated on TSA plates. TSA plates were incubated for 20 hours at 37°C before CFU values were determined.

[7] = test system: methicillin-sensitive Staphylococcus pseudintermedius; test: MIC by broth microdilution against MSSP clinical isolates; type: cell-based; details: nine MSSP isolates, triplicate
Experimental: as §1, §2

[8] = test system: murine macrophage cell line (J774.A1); test: In vitro cytotoxicity analysis (MTS assay); type: cell-based; details: 10 μg/mL, J774.A1, two hours
Experimental: Compounds were assayed at concentrations of 5 μg/mL, 10 μg/mL, 20 μg/mL, and 40 μg/mL against a murine macrophage cell line (J774.A1) (ATCC TIB-67, American Type Culture Collection (ATCC), Manassas, VA, USA) to determine the potential toxic effect in vitro. Cells were cultured in Dulbeco’s modified Eagle’s medium (Sigma-Aldrich, St. Louis, MO, USA) with 10% fetal bovine serum (USA Scientific, Inc.) at 37°C with 5% CO2. Controls received DMSO alone at a concentration equal to that in drug-treated cell samples. The cells were incubated with the compounds in a 96-well plate at 37°C and 5.0% CO2 for two hours prior to addition of the assay reagent MTS 3-(4,5-dimethylthiazol-2-yl)-5-(3-carboxymethoxyphenyl)-2-(4-sulfophenyl)-2H-tetrazolium) (Promega, Madison, WI, USA). Absorbance readings were taken using a kinetic ELISA microplate reader (Molecular Devices, Sunnyvale, CA, USA). The quantity of viable cells after treatment with each compound was expressed as a percentage of the control, DMSO.
All statistical analyses were performed with GraphPad Prism 6.0 (GraphPad Software, La Jolla, CA). Data generated from cytotoxicity analysis of the thiazole compounds against J774.A1 cells and the 260 and 280 nm cell leakage analysis were analyzed using one-way ANOVA, with post hoc Tukey's multiple comparisons test (P < 0.05).

Compound: CCCCC#Cc1ccc(-c2nc(C)c(/C(C)=N/NC(=N)N)s2)cc1 [Compound 3]
- MIC50 ([1]; Staphylococcus pseudintermedius, read-out: MIC50): 0.48 µg/mL (≈ 1.36 µM)
- MIC Range [1]: 0.18 to 1.41 µg/mL
- MBC ([2]; Staphylococcus pseudintermedius, lowest concentration that killed 50% of isolates, read-out: MBC50): 0.71 µg/mL (≈ 2.01 µM)
- MBC Range [2]: 0.18 to 1.41 µg/mL
- relationship with oxacillin (MRSP SP3 [3]; checkerboard assay): synergistic
- ƩFIC (MRSP SP3 [3]; combination with oxacillin, ≤ 0.5 synergistic, > 0.5 to ≤ 4.0 indifference, > 4 antagonistic): 0.38
- microsomal CLint ([4]; NADPH omitted, read-out: NADPH-free CLint): 6.6 µL/min/mg
- half-life ([4]; NADPH omitted, read-out: NADPH-free T1/2): 5.85 h
- microsomal CLint ([4]; with NADPH, duplicate, read-out: NADPH-dependent CLint): 18.7 µL/min/mg
- half-life ([4]; with NADPH, duplicate, read-out: NADPH-dependent T1/2): 2.05 h
- solubility at 2 h [5]: 5.51 µg/mL (≈ 15.6 µM)
- Post-antibiotic Effect (MRSP SP3 [6]): >9 h
- MIC50 ([7]; lowest concentration inhibiting growth in 50% of isolates): 0.71 µg/mL (≈ 2.01 µM)
- MIC ([7]; read-out: MIC Range): 0.18 to 0.94 µg/mL (≈ 0.509 to 2.66 µM)
- toxicity to murine macrophage cells (MTS assay) [8]: not toxic
